# Experimental data reported in patent US20240139125A1 (INDUSTRIAL COOPERATION FOUNDATION JEONBUK NATIONAL …, priority 2020, published 2024).
# Key:
# [1] = test system: binding between mTORC2 and ribosomes; test: PLA of mTORC2-ribosome binding with Ca2+ chelators; type: cell-based; conditions: HT1080 cells, 10 μM
# Method: FIG. 46A is the PLA result between the indicated proteins (fine and bright spots) in HT1080 cells treated with BAPTA-AM (10 μM), BAPTA (10 μM), and EGTA-AM (10 μM). The scale bar represents 15 μm. The graph on the right quantifies the fine, bright points (n=3, independent experiment). Data were expressed as mean±SD. **p<0.01; ****p<0.0001, Tukey's post hoc test after member ANOVA.
# The role of Ca^2+ in mTORC2 activation was investigated. Ca^2+ depletion by BAPTA acetoxymethyl ester (BAPTA-AM) rather than BAPTA or slow Ca^2+ chelator (ie, EGTA-AM) blocked the binding between mTORC2 and ribosomes as shown in PLA analysis results. (See FIG. 46A).
# BI-1 (TMBIM6) = test: HT1080 xenograft with SAMiRNA knockdown of BI-1; type: in vivo, nude mice; conditions: 1 mg/kg, intravenously in the tail every 3 days
# Method: FIGS. 13A-13D show the volume, weight, and size of tumors derived from HT1080 in TMBIM6-target SAMiRNA, control SAMiRNA or nude mice injected with saline solution (n=5 mice per group) through the tail vein. Data were expressed as mean±SD. *p<0.05, ***p<0.001, ****p<0.0001, Bonferroni's post hoc test (B) after binary ANOVA, member ANOVA followed by Tukey's post hoc test.
# In culture, exponentially growing BI-1 (TMBIM6) knockout and WT HT1080 cells were treated with trypsin and quantified through trypan blue staining differentiation, and 3-5×10^6 cells were resuspended in 0.1 ml PBS. Cells were injected subcutaneously into the flanks of each mouse. 5×10^6 cells were injected into 0.1 ml PBS for SMAiRNA or BIA treatment. When the weight of the tumor reaches about 100 mg (7-10 days after inoculation), mice are randomly assigned 1 mg/kg BI-1 SAMiRNA diluted in saline, 1 mg/kg BIA diluted in DMSO (final concentration: 10% v/v) or vehicle (saline solution or DMSO, 10% v/v) was divided into groups.
# SAMiRNA was administered intravenously in the tail every 3 days and BIA was injected intraperitoneally 5 days per week over 3 weeks. […].
# After 25-28 days, the mice were euthanized, solid tumors were incised, and tumor volumes were recorded. Tumor size was measured with a caliper. The tumor volume (mm^3) was calculated by the formula [(shortest diameter)2×longest diameter]/2.
Compound,binding between mTORC2 and ribosomes [1],tumor formation and Ki67 expression (BI-1 (TMBIM6))
"CC(=O)OCOC(=O)CN(CC(=O)OCOC(C)=O)c1ccccc1OCCOc1ccccc1N(CC(=O)OCOC(C)=O)CC(=O)OCOC(C)=O [BAPTA-AM, BAPTA acetoxymethyl ester]",blocked,–
"SAMiRNA: self-assembled micelle inhibitory RNA against BI-1, sequence 5′-AAGGCACUGCAUUGAUCUUU-3′, obtained from Bioneer (siRNA; micelle-forming conjugate, chemistry not fully specified)",–,reduced
